Key:
β5 = target: T1, β5 (Homo sapiens, UniProt P28074); assay: Enzymatic inhibitory activity on β5 (HEK-293 cell lysate, Ac-WLA-AMC substrate); format: biochemical; settings: 1 hour pre-incubation
T1 construct: using HEK-293 cell lysate as the enzyme source of D5; endogenous in cells; host or cells: HEK-293 (human embryonic kidney cells)
Excerpt: β5 is a catalytic subunit of immunoproteasomes. In this experiment, an enzymatic detection platform was established using its hydrolytic enzyme activity and used for compound activity detection. Using Ac-WLA-AMC (Bonston Biochem, Cat #5-330) as a substrate for D5, the amount of fluorescent group AMC (7-amino-4-methylcoumarin) released after hydrolysis can reflect the enzymatic activity. […] We established an enzymatic detection method for compound inhibition on D5 using HEK-293 cell lysate as the enzyme source of D5 and detected the compound inhibitory activity (half inhibitory concentration, IC50). The enzymatic inhibitory activity of compounds against D5 was used as a measure index of compound selectivity.
(§1) HEK-293 cells were cultured in a 75 cm^2 cell culture flask (Corning) (37° C., 95% air, and 5% CO2) with DMEM (Biological Industries) medium containing 10% fetal bovine serum (Biological Industries) and 1% Pen Strep (Gibco) and passaged 2-3 times one week. 1×10^7 HEK-293 cells were collected, resuspended in 1 ml of PBS (Solarbio), and centrifuged at 3000 rpm for 5 minutes. The supernatant was aspirated off. The cells were resuspended in 500 μl of lysis buffer (20 mM Tris, pH 8.0, 5 mM EDTA, plus Protease inhibitor (1:1000) and Phosphatase Inhibitor (1:100) when used) and left on ice for 30 minutes. The cells were broken by supersonic technique, 0.5 S on, 0.5 S off, for 2.5 S. The centrifuge was performed at 12000 rpm, 4° C. for 10 minutes. The supernatant was the cell lysate and protein quantification was performed using the BCA method (Thermo, #23225).
Compounds were diluted in a 5-fold gradient with 100% DMSO for a total of 9 concentrations. 2 W for each concentration was added to a 48-μl reaction buffer (20 mM Tris, pH 8.0, 0.5 mM EDTA) and mixed well as 4* compound (final concentrations: 100000, 20000, 4000, 800, 160, 32, 6.4, 1.28, and 0 nM) for later use. A reaction buffer was used to prepare 4*HEK-293 cell lysate at a final concentration of 25 ng/μl and 2*Ac-WLA-AMC at a final concentration of 20 μM. 5 W of 4* compound was added to a 384-well plate (OptiPlate-384, purchased from PerkinElmer), added with 5 W of 4*HEK-293 cell lysate, centrifuged, and reacted in an incubator at 23° C. for 1 hour. 10 W of 2* Ac-WLA-AMC was added and the reaction was started by centrifugation at 23° C. in the dark for 2 hours. After completion of the reaction, the signal value (excitation wavelength 345 nm/emission wavelength 445 nm) was read on the CLARIO star^Plus (purchased from BMG LRBTECH). Enzyme activity was determined at 9 concentrations for each compound, and data were processed using the GraphPad Prism software to calculate the half inhibitory concentration of the compound on D5, i.e. the IC50 value.

LMP7 [1] = target: T2, LMP7 (Homo sapiens, UniProt P28062); assay: Enzymatic inhibitory activity on LMP7 (MOLT-4 cell lysate, Ac-ANW-AMC substrate); format: biochemical; settings: 1 hour pre-incubation
T2 construct: using MOLT-4 cell lysate as the enzyme source of LMP7; endogenous in cells; host or cells: MOLT-4 (human acute lymphoblastic leukemia cells)
Excerpt: LMP7 is a catalytic subunit of immunoproteasomes. In this experiment, an enzymatic detection platform was established using its hydrolytic enzyme activity and used for compound activity detection. Using Ac-ANW-AMC (Bonston Biochem, Cat #S-320) as a substrate for LMP7, the amount of fluorescent group AMC (7-amino-4-methylcoumarin) released after hydrolysis can reflect the enzymatic activity. MOLT-4 cells are human acute lymphoblastic leukemia cells and have been identified as cells with high expression of LMP7. We established an enzymatic detection method for compound inhibition on LMP7 using MOLT-4 cell lysate as the enzyme source of LMP7 and detected the compound inhibitory activity (half inhibitory concentration, IC50).
as §1, with “MOLT-4 cells were” for “HEK-293 cells were”, “CO2) with RPMI-1640 (Biological Industries)” for “CO2) with DMEM (Biological Industries)”, “week. 1×10^7 MOLT-4 cells were” for “week. 1×10^7 HEK-293 cells were”, “was performed by using the” for “was performed using the”
Compounds were diluted in a 5-fold gradient with 100% DMSO for a total of 9 concentrations: 2 W for each concentration was added to a 48-μl reaction buffer (20 mM Tris, pH 8.0, 0.5 mM EDTA) and mixed well as 4* compound (final concentrations: 2000, 400, 80, 16, 3.2, 0.64, 0.128, 0.0256, and 0 nM) for later use. A reaction buffer was used to prepare 4* MOLT-4 cell lysate at a final concentration of 20 ng/μl and 2*Ac-ANW-AMC at a final concentration of 100 µM. 5 μl of 4* compound was added to a 384-well plate (OptiPlate-384, purchased from PerkinElmer), added with 5 W of 4* cell lysate, centrifuged, and reacted in an incubator at 23° C. for 1 hour. 10 W of 2* Ac-ANW-AMC was added and the reaction was started by centrifugation at 23° C. in the dark for 2 hours. After completion of the reaction, the signal value (excitation wavelength 345 nm/emission wavelength 445 nm) was read on the CLARIO star^Plus (purchased from BMG LRBTECH). Enzyme activity was determined at 9 concentrations for each compound, and data were processed using the GraphPad Prism software to calculate the half inhibitory concentration of the compound on LMP7, i.e. the IC50 value.

LMP7 [2] = target: T2, LMP7; assay: Cytological inhibitory activity on LMP7 in MOLT-4 cells; format: cell-based; settings: incubation for 2 hours with compound, read-out: Cytological activity data LMP7 Activity (MOLT-4Cell)
Protocol: MOLT-4 are human acute lymphoblastic leukemia cells and have been identified as cells with high expression of LMP7. In this experiment, the compounds were pre-incubated with MOLT-4, and Ac-ANW-AMC (BonstonBiochem, Cat #S-320) was used as the substrate of LMP7 to establish the detection method for the enzymatic activity of LMP7 in cells and detect the compound inhibitory activity (half inhibitory concentration, IC50).
Cells were plated in a 24-well plate (Corning) at a concentration of 1.5×10^5/ml per well. The next day compounds were prepared and diluted in a 5-fold gradient from 2 mM in 100% DMSO for a total of 8 concentrations. 2 μl for each concentration of the compound was added to a 1-ml cell culture medium, supplemented with 1 ml of RPMI-1640 only (final FBS concentration 5%, v/v). The compounds were mixed with the cells. After incubation for 2 hours in the incubator, the cells were centrifuged at 2000 rpm for 8 minutes to discard the supernatant. The cells were washed once with 2 ml PBS (Solarbio), and centrifuged again to discard the supernatant. The cells were resuspended in 100 μl of lysis buffer (20 mM Tris, pH 8.0, 5 mM EDTA, plus Protease inhibitor (1: 100) and Phosphatase Inhibitor (1:100) when used) and left in a 4° C. refrigerator for 45 minutes.
After 2 min. of centrifuge at 2000 rpm, the lysate was transferred from the 24-well plate to a 96-well plate, and centrifuged at 2000 rpm, 4° C., for 15 min. The supernatant was the lysate. Protein quantification was performed using the BCA method (Thermo, #23225). A 2* lysate was prepared with the reaction buffer (20 mM Tris, pH 8.0, 0.5 mM EDTA) at a final concentration of 20 ng/μl. 2* Ac-ANW-AMC was prepared with the reaction buffer at a final concentration of 100 μM. 10 µl of 2* lysate was added to a 384-well plate (OptiPlate-384, purchased from PerkinElmer), and added with 10 W of 2* Ac-ANW-AMC. The reaction was started by centrifugation at 23° C. in the dark for 1 hour. After completion of the reaction, the signal value (excitation wavelength 345 nm/emission wavelength 445 nm) was read on the CLARIO starPlus (purchased from BMG LRBTECH). Enzyme activity was determined at 8 concentrations for each compound, and data were processed using the GraphPad Prism software to calculate the half inhibitory concentration of the compound on LMP7 hydrolase in MOLT-4 cells, i.e. the IC50 value.

Row | Structure (SMILES) | IC50 (β5) | IC50 (LMP7 [1]) | IC50 (LMP7 [2])
1 | O=C(Nc1cc(Cl)ccc1Cl)C(=O)N[C@@H](Cc1coc2ccccc12)B(O)O [Ex. 24, ((R)-2-(benzofuran-3-yl)-1-(2-oxo-2-((2,5-dichlorophenyl)amino)acetamido)ethyl)boronic acid] | 115 nM | 6.27 nM | 3.92 nM
2 | O=C(NCC1CCCO1)C(=O)N[C@@H](Cc1coc2ccccc12)B(O)O (stereo partly drawn) [Ex. 22, (R)-(2-(benzofuran-3-yl)-1-(2-(((tetrahydrofuran-2-yl)methyl)amino)-2-oxoacetamido)ethyl)boronic acid] | 22.2 nM | 3.57 nM | 1.83 nM
3 | C[C@@H]1COB([C@H](Cc2coc3ccccc23)NC(=O)C(=O)Nc2cnccn2)O1 [Ex. 69] | 18.2 nM | 1.44 nM | 0.88 nM
4 | CC1(C)[C@@H]2C[C@H]3OB([C@H](Cc4coc5ccccc45)NC(=O)C(=O)Nc4ncc(Cl)s4)O[C@@]3(C)[C@H]1C2 [Ex. 35, (R)-(2-(benzofuran-3-yl)-1-(2-oxo-2-((5-chlorothiazol-2-yl)amino)acetamido)ethyl)boronic acid (1S,2S,3R,5S)-(+)-pinane-2,3-diol ester] | 38.4 nM | 1.99 nM | 13.6 nM
5 | CC1(C)CC(C)(C)OB([C@H](Cc2coc3ccccc23)NC(=O)C(=O)Nc2cnccn2)O1 [Ex. 72] | 21.8 nM | 1.46 nM | 0.98 nM
6 | CC1(C)[C@@H]2C[C@H]3OB([C@H](Cc4coc5ccccc45)NC(=O)C(=O)Nc4cnccn4)O[C@@]3(C)[C@H]1C2 [Ex. 17, (R)-(2-(benzofuran-3-yl)-1-(2-oxo-2-(pyrazin-2-ylamino)acetamido)ethyl) boronic acid (1S,2S,3R,5S)-(+)-pinane-2,3-diol ester] | 30.1 nM | 2.6 nM | 0.8 nM
7 | CC1(C)COB([C@H](Cc2coc3ccccc23)NC(=O)C(=O)Nc2cnccn2)OC1 [Ex. 71] | 28.5 nM | 1.18 nM | 1.35 nM
8 | CC1COB([C@H](Cc2coc3ccccc23)NC(=O)C(=O)Nc2cnccn2)O1 (stereo partly drawn) [Ex. 68] | 34.8 nM | 1.24 nM | 1.1 nM
9 | Cc1cnc(NC(=O)C(=O)N[C@@H](Cc2coc3ccccc23)B(O)O)cn1 [Ex. 46, (R)-(2-(benzofuran-3-yl)-1-(2-oxo-2-((5-methylpyrazin-2-yl)amino)acetamido)ethyl)boronic acid] | 93.8 nM | 7.83 nM | 2.29 nM
10 | O=C(Nc1cncnc1)C(=O)N[C@@H](Cc1coc2ccccc12)B(O)O [Ex. 48, (R)-(2-(benzofuran-3-yl)-1-(2-oxo-2-(pyrimidin-5-ylamino)acetamido)ethyl) boronic acid] | 22.5 nM | 4.58 nM | 11.1 nM
11 | O=C(Nc1ccc(F)cc1F)C(=O)N[C@@H](Cc1coc2ccccc12)B(O)O [Ex. 55, (R)-(2-(benzofuran-3-yl)-1-(2-oxo-2-(2,4-difluorophenylamino)acetamido)ethyl)boronic acid] | 54.6 nM | 1.43 nM | 6.84 nM
12 | O=C(Nc1nccs1)C(=O)N[C@@H](Cc1coc2ccccc12)B(O)O [Ex. 13, (R)-(2-(benzofuran-3-yl)-1-(2-oxo-2-(thiazol-2-ylamino)acetamido)ethyl) boronic acid] | 58.7 nM | 3.13 nM | 4.06 nM
13 | O=C(Nc1cnccn1)C(=O)N[C@@H](Cc1coc2ccccc12)B1OCCCO1 [Ex. 70] | 26 nM | 1.5 nM | 0.91 nM
14 | CC1(C)[C@@H]2C[C@H]3OB([C@H](Cc4coc5ccccc45)NC(=O)C(=O)Nc4ncc(F)s4)O[C@@]3(C)[C@H]1C2 [Ex. 33, (R)-(2-(benzofuran-3-yl)-1-(2-oxo-2-((5-fluorothiazol-2-yl)amino)acetamido)ethyl)boronic acid (1S,2S,3R,5S)-(+)-pinane-2,3-diol ester] | 39 nM | 3.08 nM | 9.5 nM

From patent US20240425529A1, “BORIC ACID DERIVATIVE” (SHOUYAO HOLDINGS (BEIJING) CO., LTD., priority 2021, published 2024)
